In the NIST ThermoML archive (doi:10.1021/je049762q):
“And” between values parts separate entries of the source, which are not always exact repeats. Identical values can stand only once. ± gives the expanded uncertainty stated by the source.

Test: molar heat capacity at constant pressure
Details: 101.33 kPa

Brc1cc(Br)cc(Br)c1 [1,3,5-tribromobenzene]
molar heat capacity at constant pressure
Details	Crystal	Liquid
6.52 K	1.72 ± 0.06 J/K/mol	–
6.88 K	2.15 ± 0.07 J/K/mol	–
6.95 K	2.19 ± 0.07 J/K/mol	–
7.15 K	2.56 ± 0.07 J/K/mol	–
7.61 K	3.13 ± 0.08 J/K/mol	–
7.91 K	3.91 ± 0.09 J/K/mol	–
8.43 K	4.55 ± 0.1 J/K/mol	–
8.64 K	4.82 ± 0.1 J/K/mol	–
9.26 K	5.6 ± 0.11 J/K/mol	–
9.48 K	6.06 ± 0.12 J/K/mol	–
9.98 K	6.73 ± 0.13 J/K/mol	–
10 K	6.75 ± 0.13 J/K/mol	–
10.55 K	7.4 ± 0.14 J/K/mol	–
10.76 K	7.57 ± 0.14 J/K/mol	–
11.09 K	8.13 ± 0.15 J/K/mol	–
11.43 K	8.59 ± 0.15 J/K/mol	–
12.2 K	9.56 ± 0.16 J/K/mol	–
12.4 K	9.97 ± 0.17 J/K/mol	–
13.02 K	11.12 ± 0.18 J/K/mol	–
13.44 K	11.86 ± 0.19 J/K/mol	–
13.52 K	11.96 ± 0.19 J/K/mol	–
14.28 K	13.92 ± 0.22 J/K/mol	–
14.41 K	14.32 ± 0.22 J/K/mol	–
14.86 K	15.39 ± 0.23 J/K/mol	–
15 K	15.69 ± 0.23 J/K/mol	–
15.24 K	16.16 ± 0.24 J/K/mol	–
15.97 K	17.16 ± 0.25 J/K/mol	–
16.24 K	17.78 ± 0.25 J/K/mol	–
16.42 K	18.22 ± 0.25 J/K/mol	–
16.81 K	18.82 ± 0.26 J/K/mol	–
17.75 K	20.23 ± 0.27 J/K/mol	–
18.13 K	21.04 ± 0.27 J/K/mol and 21.05 ± 0.28 J/K/mol	–
18.35 K	21.29 ± 0.28 J/K/mol	–
18.91 K	22.41 ± 0.28 J/K/mol	–
19.3 K	22.84 ± 0.29 J/K/mol	–
19.96 K	24.11 ± 0.29 J/K/mol	–
20 K	24.16 ± 0.29 J/K/mol	–
20.32 K	24.44 ± 0.29 J/K/mol	–
20.36 K	25.02 ± 0.3 J/K/mol	–
20.69 K	25.21 ± 0.3 J/K/mol	–
20.91 K	25.52 ± 0.3 J/K/mol	–
21.28 K	25.98 ± 0.3 J/K/mol	–
21.33 K	26.05 ± 0.3 J/K/mol	–
22.22 K	27.37 ± 0.3 J/K/mol	–
22.85 K	28.05 ± 0.3 J/K/mol	–
23.13 K	28.66 ± 0.3 J/K/mol	–
23.5 K	29.01 ± 0.3 J/K/mol	–
25 K	30.93 ± 0.3 J/K/mol	–
25.43 K	31.5 ± 0.3 J/K/mol	–
25.52 K	31.63 ± 0.3 J/K/mol	–
25.66 K	31.94 ± 0.3 J/K/mol	–
27.61 K	34.27 ± 0.29 J/K/mol	–
28.08 K	34.74 ± 0.29 J/K/mol	–
29.8 K	36.66 ± 0.27 J/K/mol	–
30 K	36.88 ± 0.23 J/K/mol	–
30.83 K	37.81 ± 0.23 J/K/mol	–
32.02 K	39.23 ± 0.24 J/K/mol	–
33.45 K	40.57 ± 0.24 J/K/mol	–
34.29 K	41.49 ± 0.25 J/K/mol	–
35.86 K	42.74 ± 0.25 J/K/mol	–
36.6 K	43.58 ± 0.26 J/K/mol	–
38.95 K	45.82 ± 0.26 J/K/mol	–
40 K	46.88 ± 0.27 J/K/mol	–
41.31 K	48.18 ± 0.27 J/K/mol	–
43.74 K	50.35 ± 0.28 J/K/mol	–
46.2 K	52.53 ± 0.29 J/K/mol	–
48.69 K	54.78 ± 0.3 J/K/mol	–
50 K	55.72 ± 0.3 J/K/mol	–
51.22 K	56.59 ± 0.31 J/K/mol	–
53.78 K	58.73 ± 0.32 J/K/mol	–
56.38 K	60.57 ± 0.32 J/K/mol	–
59 K	62.4 ± 0.33 J/K/mol	–
60 K	63.1 ± 0.33 J/K/mol	–
61.66 K	64.25 ± 0.34 J/K/mol	–
64.34 K	66.1 ± 0.34 J/K/mol	–
67.06 K	67.97 ± 0.35 J/K/mol	–
69.79 K	69.75 ± 0.36 J/K/mol	–
70 K	69.88 ± 0.36 J/K/mol	–
72.55 K	71.4 ± 0.37 J/K/mol	–
75.33 K	73.12 ± 0.37 J/K/mol	–
78.14 K	74.71 ± 0.38 J/K/mol	–
80 K	75.73 ± 0.38 J/K/mol	–
80.95 K	76.25 ± 0.39 J/K/mol	–
83.79 K	77.97 ± 0.39 J/K/mol	–
84.19 K	78.04 ± 0.39 J/K/mol	–
86.63 K	79.59 ± 0.4 J/K/mol	–
87.47 K	79.75 ± 0.4 J/K/mol	–
89.49 K	81.07 ± 0.4 J/K/mol	–
90 K	81.22 ± 0.56 J/K/mol	–
90.65 K	81.41 ± 0.56 J/K/mol	–
92.36 K	82.26 ± 0.56 J/K/mol	–
93.74 K	82.91 ± 0.57 J/K/mol	–
95.25 K	83.54 ± 0.57 J/K/mol	–
96.75 K	84.24 ± 0.57 J/K/mol	–
98.15 K	85.01 ± 0.57 J/K/mol	–
99.69 K	85.65 ± 0.57 J/K/mol	–
100 K	85.83 ± 0.57 J/K/mol	–
101.04 K	86.47 ± 0.57 J/K/mol	–
102.61 K	87.46 ± 0.58 J/K/mol	–
105.54 K	88.95 ± 0.58 J/K/mol	–
108.48 K	90.22 ± 0.58 J/K/mol	–
110 K	90.89 ± 0.58 J/K/mol	–
111.43 K	91.51 ± 0.58 J/K/mol	–
114.39 K	92.81 ± 0.59 J/K/mol	–
117.36 K	94.15 ± 0.59 J/K/mol	–
120 K	95.33 ± 0.59 J/K/mol	–
120.34 K	95.48 ± 0.59 J/K/mol	–
123.32 K	96.75 ± 0.59 J/K/mol	–
126.31 K	98.04 ± 0.6 J/K/mol	–
129.31 K	99.34 ± 0.6 J/K/mol	–
130 K	99.63 ± 0.6 J/K/mol	–
132.31 K	100.61 ± 0.6 J/K/mol	–
135.32 K	101.87 ± 0.6 J/K/mol	–
138.33 K	103.08 ± 0.61 J/K/mol	–
140 K	103.77 ± 0.61 J/K/mol	–
141.34 K	104.32 ± 0.61 J/K/mol	–
144.36 K	105.54 ± 0.61 J/K/mol	–
147.39 K	106.84 ± 0.61 J/K/mol	–
150 K	107.74 ± 0.62 J/K/mol	–
150.41 K	107.89 ± 0.62 J/K/mol	–
153.44 K	109.1 ± 0.62 J/K/mol	–
156.48 K	110.25 ± 0.62 J/K/mol	–
159.51 K	111.32 ± 0.62 J/K/mol	–
160 K	111.51 ± 0.62 J/K/mol	–
162.55 K	112.49 ± 0.63 J/K/mol	–
165.6 K	113.63 ± 0.63 J/K/mol	–
168.64 K	114.79 ± 0.63 J/K/mol	–
170 K	115.31 ± 0.63 J/K/mol	–
171.69 K	115.96 ± 0.63 J/K/mol	–
174.73 K	117.13 ± 0.63 J/K/mol	–
177.78 K	118.3 ± 0.64 J/K/mol	–
180 K	119.09 ± 0.64 J/K/mol	–
180.84 K	119.39 ± 0.64 J/K/mol	–
183.89 K	120.53 ± 0.64 J/K/mol	–
186.94 K	121.72 ± 0.64 J/K/mol	–
190 K	122.82 ± 0.65 J/K/mol	–
193.05 K	123.91 ± 0.65 J/K/mol	–
196.11 K	125.07 ± 0.65 J/K/mol	–
199.17 K	126.16 ± 0.65 J/K/mol	–
200 K	126.45 ± 0.65 J/K/mol	–
202.22 K	127.16 ± 0.65 J/K/mol	–
205.28 K	128.31 ± 0.66 J/K/mol	–
208.34 K	129.4 ± 0.66 J/K/mol	–
210 K	130.05 ± 0.66 J/K/mol	–
211.4 K	130.6 ± 0.66 J/K/mol	–
214.46 K	131.79 ± 0.66 J/K/mol	–
217.52 K	132.78 ± 0.67 J/K/mol	–
220 K	133.7 ± 0.67 J/K/mol	–
220.58 K	133.9 ± 0.67 J/K/mol	–
223.64 K	135.03 ± 0.67 J/K/mol	–
226.7 K	136.15 ± 0.67 J/K/mol	–
229.77 K	137.26 ± 0.67 J/K/mol	–
230 K	137.34 ± 0.67 J/K/mol	–
232.83 K	138.31 ± 0.68 J/K/mol	–
235.89 K	139.48 ± 0.68 J/K/mol	–
238.95 K	140.62 ± 0.68 J/K/mol	–
240 K	141.01 ± 0.68 J/K/mol	–
242.01 K	141.75 ± 0.68 J/K/mol	–
245.07 K	142.87 ± 0.69 J/K/mol	–
248.12 K	143.98 ± 0.69 J/K/mol	–
250 K	144.67 ± 0.69 J/K/mol	–
251.17 K	145.1 ± 0.69 J/K/mol	–
254.22 K	146.19 ± 0.69 J/K/mol	–
257.27 K	147.31 ± 0.69 J/K/mol	–
260 K	148.3 ± 0.7 J/K/mol	–
260.32 K	148.41 ± 0.7 J/K/mol	–
263.36 K	149.52 ± 0.7 J/K/mol	–
266.41 K	150.63 ± 0.7 J/K/mol	–
269.46 K	151.81 ± 0.7 J/K/mol	–
270 K	152.01 ± 0.7 J/K/mol	–
272.51 K	152.93 ± 0.71 J/K/mol	–
275.56 K	153.96 ± 0.71 J/K/mol	–
278.61 K	155.09 ± 0.71 J/K/mol	–
280 K	155.47 ± 0.71 J/K/mol	–
281.65 K	155.93 ± 0.71 J/K/mol	–
284.69 K	157.08 ± 0.71 J/K/mol	–
287.74 K	158.17 ± 0.72 J/K/mol	–
290 K	158.9 ± 0.72 J/K/mol	–
290.78 K	159.14 ± 0.72 J/K/mol	–
293.81 K	160 ± 0.72 J/K/mol	–
296.86 K	161.12 ± 0.72 J/K/mol	–
298.15 K	161.57 ± 0.72 J/K/mol	–
299.91 K	162.28 ± 0.72 J/K/mol	–
300 K	162.32 ± 0.72 J/K/mol	–
302.95 K	163.09 ± 0.73 J/K/mol	–
306 K	164.04 ± 0.73 J/K/mol	–
306.85 K	164.3 ± 0.73 J/K/mol	–
309.04 K	165.03 ± 0.73 J/K/mol	–
310 K	165.35 ± 0.73 J/K/mol	–
310.25 K	165.42 ± 0.73 J/K/mol	–
312.08 K	166.05 ± 0.73 J/K/mol	–
313.63 K	166.52 ± 0.73 J/K/mol	–
315.12 K	167.1 ± 0.73 J/K/mol	–
317 K	167.67 ± 0.74 J/K/mol	–
320 K	168.98 ± 0.74 J/K/mol	–
320.37 K	169.11 ± 0.74 J/K/mol	–
323.72 K	169.81 ± 0.74 J/K/mol	–
327.06 K	170.85 ± 0.74 J/K/mol	–
330 K	172.33 ± 0.74 J/K/mol	–
330.4 K	172.47 ± 0.75 J/K/mol	–
333.72 K	173.45 ± 0.75 J/K/mol	–
337.03 K	174.6 ± 0.75 J/K/mol	–
340 K	175.62 ± 0.75 J/K/mol	–
340.34 K	175.73 ± 0.75 J/K/mol	–
343.63 K	176.72 ± 0.75 J/K/mol	–
346.92 K	178.18 ± 0.76 J/K/mol	–
350 K	179.02 ± 0.76 J/K/mol	–
350.2 K	178.96 ± 0.76 J/K/mol	–
353.46 K	180.41 ± 0.76 J/K/mol	–
356.72 K	181 ± 0.76 J/K/mol	–
357.65 K	181.37 ± 0.76 J/K/mol	–
359.97 K	182.49 ± 0.77 J/K/mol	–
360 K	182.5 ± 0.77 J/K/mol	–
360.9 K	182.62 ± 0.77 J/K/mol	–
363.22 K	183.54 ± 0.77 J/K/mol	–
364.15 K	183.8 ± 0.77 J/K/mol	–
366.45 K	185.01 ± 0.77 J/K/mol	–
367.38 K	185.01 ± 0.77 J/K/mol	–
369.68 K	185.57 ± 0.77 J/K/mol	–
370 K	185.85 ± 0.77 J/K/mol	–
370.61 K	186.07 ± 0.77 J/K/mol	–
372.9 K	186.88 ± 0.77 J/K/mol	–
373.83 K	187.15 ± 0.77 J/K/mol	–
376.11 K	187.95 ± 0.78 J/K/mol	–
377.04 K	188.3 ± 0.78 J/K/mol	–
379.31 K	189.23 ± 0.78 J/K/mol	–
380 K	189.36 ± 0.78 J/K/mol	–
380.25 K	189.56 ± 0.78 J/K/mol	–
390 K	192.86 ± 0.79 J/K/mol	–
394.96 K	194.6 ± 0.79 J/K/mol	220.84 ± 0.84 J/K/mol
399 K	–	222.12 ± 0.84 J/K/mol
400 K	–	222.34 ± 0.85 J/K/mol
401.94 K	–	222.86 ± 0.85 J/K/mol
404.87 K	–	223.83 ± 0.85 J/K/mol
407.79 K	–	224.32 ± 0.85 J/K/mol
410 K	–	225.31 ± 0.85 J/K/mol
410.72 K	–	225.87 ± 0.85 J/K/mol
413.63 K	–	226.31 ± 0.85 J/K/mol
